Experimental data published in PubChem BioAssay (NCI).
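Each compound was tested at five concentrations against cells in 96-well plates for 48 hours. The concentration for 50% growth inhibition is given as GI50. TGI denotes the concentration required for complete inhibition of growth.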

The molecules below were run on 786-0 renal (assay: growth of human tumour cells (NCI), 48 h).
`CN(C)C(=S)/N=c1\ss/c(=N\S(=O)(=O)c2ccccc2)n1-c1ccccc1` was tested, and the TGI was greater than 100 µM. `Cc1c(C(=O)NN)nnn1-c1ccnc2c(C(F)(F)F)cccc12` was tested, and the GI50 was greater than 100 µM and the TGI was greater than 100 µM. In the case of `O=C(N/N=C/c1ccc(Cl)cc1Cl)c1ccccc1Nc1cccc(C(F)(F)F)c1`, the GI50 was 6.74 µM and the TGI was 31 µM. In the case of `N#Cc1c(N)c(C(=O)O)nn(-c2cccc(C(F)(F)F)c2)c1=O`, the TGI was greater than 100 µM. `CCOC(=O)Cc1nc(/C(C#N)=C/c2ccco2)[nH]c(=O)c1C#N` was tested, and the TGI was greater than 100 µM. `CC1=Nc2c(ccc3c2C(=O)c2ccccc2C3=O)NC(c2ccncc2)C1` (stereo not given) was tested, and the GI50 was greater than 100 µM and the TGI was greater than 100 µM. Work on `Cc1ccc(C(=O)CC(Sc2cccc(Cl)c2Cl)c2ccc(Cl)cc2)cc1C` (stereo not given) yielded a GI50 of 17.8 µM and a TGI of 36.2 µM. `COc1cc(/C=C\c2ccc(O)cc2)cc(OC)c1OC` gave a TGI greater than 100 µM. Molecule `C=C(COC(C)=O)CC(/C=C(\C)CCC=C(C)C)OC(C)=O` (stereo not given) has a TGI greater than 100 µM. With `CC1(C)CCc2cc3c(cc2O1)OCCC3=O` the TGI was greater than 100 µM. For `Oc1c2c(c(O)c3ccccc13)=N[C@@H](c1ccccc1)[C@H](c1ccccc1)N=2`, the TGI was greater than 100 µM. `c1cc[c]([Sn]([S]c2cccc3cccnc23)([c]2ccccc2)[c]2ccccc2)cc1` was tested, and the GI50 was 0.0234 µM and the TGI was 0.0758 µM. With `O=C1CCn2c([nH]c3cccc4cccc2c43)=N1` the TGI was greater than 100 µM. `C=C1CC(COc2cc(Cl)nc(N)n2)C1` gave a GI50 of 49.5 µM. `CCOc1cccc2nc3cccc(C(=O)NCCN(C)C)c3nc12` was tested, and the TGI was greater than 28.7 µM. `Cc1cc(C)nc(NS(=O)(=O)c2ccc(Nc3c4ccccc4nc4c(C(=O)N5CCN(CCOS(C)(=O)=O)CC5)ccc(Cl)c34)cc2)n1` showed a TGI greater than 100 µM. `Clc1cc(Cl)c2c(Cl)cc(Cl)c3c2c1N=S=N3` was tested, and the TGI was greater than 100 µM. For `CN1CCN(C)C1c1cccc(C2N(C)CCN2C)c1`, the TGI was greater than 100 µM. `CC(=O)OCCOCBr` gave a TGI greater than 100 µM. Molecule `O=C1c2ccccc2-c2c1c1ccccc1c(=O)n2CCNCCCNCCn1c2c(c3ccccc3c1=O)C(=O)c1ccccc1-2` has a GI50 of 0.0539 µM and a TGI of 0.326 µM. Molecule `CC(O)CN1C(=O)NC(Cc2ccccc2)C1=O` (stereo not given) has a TGI greater than 100 µM. Molecule `O=C(c1ccccc1)[C@H]1Nc2cnccc2C2c3ccccc3CC21` (stereo not given in full) has a TGI greater than 67 µM. `CN(C)c1nc(-c2cccs2)n2nc(-c3ccc(Cl)cc3)cc2n1` gave a GI50 of 3.93 µM and a TGI greater than 100 µM. With `COc1ccc(C(=O)C(C(=O)CCC(=O)Nc2cccc(C(F)(F)F)c2)c2ccccc2)cc1` (stereo not given) the TGI was greater than 100 µM. With `NC1=NC(=O)C(CC(=O)Nc2ccc([N+](=O)[O-])cc2[N+](=O)[O-])S1` (stereo not given) the TGI was greater than 100 µM. With `O=C1c2ccccc2-c2cccc3ccc(Cc4ccccc4)c1c23` the TGI was greater than 100 µM. `COC(=O)/C(=N\NC(=S)NN)C(C(=O)C(=O)Nc1ccccc1C(N)=O)c1nc2ccccc2[nH]c1=O` (stereo not given) showed a TGI greater than 100 µM. In the case of `CN(C)CCNC(=O)Nc1c(C#N)[n+]([O-])c2cc(Cl)c(Cl)cc2[n+]1[O-]`, the GI50 was 35.8 µM and the TGI was greater than 100 µM. For `CC/C=C\C/C=C\C1CC(=O)NCCCNCCCCN1` (stereo not given), the TGI was greater than 100 µM. With `CC1CCCC(C(=O)/C(=C/c2cccc(Cl)c2)C(=O)C(=O)O)C1` (stereo not given) the TGI was 33 µM. `CC(=O)c1c(C)n([O-])c2cc(C)c(C)cc2[n+]1=O` was tested, and the TGI was greater than 100 µM. `CCCS(=O)(=O)c1nc(NC2CC2)cc(-c2ccc3c(ccn3C3CC(C)(C)NC(C)(C)C3)c2)n1` was tested, and the GI50 was 1.21 µM and the TGI was 2.64 µM. For `N#CC(C#N)=Cc1cccc(Oc2ccccc2)c1`, the TGI was 34.2 µM. `Cc1ncc([N+](=O)[O-])n1CCNC(=O)CCCCn1ccnc1[N+](=O)[O-]` gave a TGI greater than 100 µM. Work on `COc1ccc(/C=C/C(=O)c2sc(-n3nc(-c4ccccc4)cc3-c3ccccc3)nc2C)cc1OC` yielded a TGI greater than 100 µM. With `NC(CCSCC(F)F)C(=O)O` (stereo not given) the TGI was greater than 100 µM. Work on `COC(=O)NC/C=C\c1nc(CC/C=C\C(=O)OC2CC3CC(=O)O[C@@H](/C=C/CC(C)C)C[C@@H]4CCC(C)C(C[C@@H](OC)CC(C2)O3)O4)co1` (stereo not given in full) yielded a GI50 of less than 0.01 µM and a TGI of 39.9 µM. For `CC1(C)OC(=O)C=C([O-])O1.CC1(C)OC(=O)C=C([O-])O1.O=c1c(O)c(-c2ccc([O-])cc2[O-])oc2cc(O)cc(O)c12.[Ti+4]`, the TGI was greater than 100 µM. `Nc1ccc(SC23CC4CC(CC(C4)C2)C3)cc1` showed a TGI greater than 100 µM. With `CCOC(=O)[C@@H](C)C[C@H](Cc1ccccc1)NC(=O)c1csc([C@@H](C[C@H](C(C)C)N(C)C(=O)[C@@H](NC(=O)[C@H]2CCCCN2C)C(C)(C)C)OC(C)=O)n1` the GI50 was less than 0.00167 µM and the TGI was greater than 6.61 µM.

What follows are molecules tested on ACHN renal (assay: growth of human tumour cells (NCI), 48 h).
For `CN(C)C(=S)/N=c1\ss/c(=N\S(=O)(=O)c2ccccc2)n1-c1ccccc1`, the TGI was greater than 100 µM. In the case of `Cc1c(C(=O)NN)nnn1-c1ccnc2c(C(F)(F)F)cccc12`, the GI50 was greater than 100 µM and the TGI was greater than 100 µM. Molecule `O=C(N/N=C/c1ccc(Cl)cc1Cl)c1ccccc1Nc1cccc(C(F)(F)F)c1` has a GI50 of 3.77 µM and a TGI of 16.5 µM. `N#Cc1c(N)c(C(=O)O)nn(-c2cccc(C(F)(F)F)c2)c1=O` showed a TGI greater than 100 µM. `CCOC(=O)Cc1nc(/C(C#N)=C/c2ccco2)[nH]c(=O)c1C#N` gave a TGI greater than 100 µM. With `CC1=Nc2c(ccc3c2C(=O)c2ccccc2C3=O)NC(c2ccncc2)C1` (stereo not given) the GI50 was 23.5 µM and the TGI was greater than 100 µM. Molecule `COc1cc(/C=C\c2ccc(O)cc2)cc(OC)c1OC` has a TGI greater than 100 µM. Work on `C=C(COC(C)=O)CC(/C=C(\C)CCC=C(C)C)OC(C)=O` (stereo not given) yielded a TGI greater than 100 µM. Molecule `CC1(C)CCc2cc3c(cc2O1)OCCC3=O` has a TGI greater than 100 µM. In the case of `Oc1c2c(c(O)c3ccccc13)=N[C@@H](c1ccccc1)[C@H](c1ccccc1)N=2`, the TGI was greater than 100 µM. `c1cc[c]([Sn]([S]c2cccc3cccnc23)([c]2ccccc2)[c]2ccccc2)cc1` showed a GI50 of 0.0335 µM and a TGI of 0.116 µM. In the case of `O=C1CCn2c([nH]c3cccc4cccc2c43)=N1`, the TGI was greater than 100 µM. In the case of `C=C1CC(COc2cc(Cl)nc(N)n2)C1`, the GI50 was 14.5 µM and the TGI was 74.1 µM. `CCOc1cccc2nc3cccc(C(=O)NCCN(C)C)c3nc12` gave a TGI of 3.01 µM. For `Cc1cc(C)nc(NS(=O)(=O)c2ccc(Nc3c4ccccc4nc4c(C(=O)N5CCN(CCOS(C)(=O)=O)CC5)ccc(Cl)c34)cc2)n1`, the TGI was greater than 100 µM. For `CN1CCN(C)C1c1cccc(C2N(C)CCN2C)c1`, the TGI was greater than 100 µM. For `CC(=O)OCCOCBr`, the TGI was greater than 100 µM. For `O=C1c2ccccc2-c2c1c1ccccc1c(=O)n2CCNCCCNCCn1c2c(c3ccccc3c1=O)C(=O)c1ccccc1-2`, the GI50 was 0.00672 µM and the TGI was 0.699 µM. `CC(O)CN1C(=O)NC(Cc2ccccc2)C1=O` (stereo not given) was tested, and the TGI was greater than 100 µM. Molecule `O=C(c1ccccc1)[C@H]1Nc2cnccc2C2c3ccccc3CC21` (stereo not given in full) has a TGI of 37.1 µM. In the case of `CN(C)c1nc(-c2cccs2)n2nc(-c3ccc(Cl)cc3)cc2n1`, the GI50 was 3.97 µM and the TGI was greater than 100 µM. Molecule `COc1ccc(C(=O)C(C(=O)CCC(=O)Nc2cccc(C(F)(F)F)c2)c2ccccc2)cc1` (stereo not given) has a TGI greater than 100 µM. Molecule `NC1=NC(=O)C(CC(=O)Nc2ccc([N+](=O)[O-])cc2[N+](=O)[O-])S1` (stereo not given) has a TGI greater than 100 µM. For `O=C1c2ccccc2-c2cccc3ccc(Cc4ccccc4)c1c23`, the TGI was greater than 100 µM. For `COC(=O)/C(=N\NC(=S)NN)C(C(=O)C(=O)Nc1ccccc1C(N)=O)c1nc2ccccc2[nH]c1=O` (stereo not given), the TGI was greater than 100 µM. `CN(C)CCNC(=O)Nc1c(C#N)[n+]([O-])c2cc(Cl)c(Cl)cc2[n+]1[O-]` showed a GI50 of 32.9 µM and a TGI greater than 100 µM. Work on `CC1CCCC(C(=O)/C(=C/c2cccc(Cl)c2)C(=O)C(=O)O)C1` (stereo not given) yielded a TGI greater than 100 µM. `CC(=O)c1c(C)n([O-])c2cc(C)c(C)cc2[n+]1=O` was tested, and the TGI was greater than 100 µM. Molecule `CCCS(=O)(=O)c1nc(NC2CC2)cc(-c2ccc3c(ccn3C3CC(C)(C)NC(C)(C)C3)c2)n1` has a GI50 of 1.77 µM and a TGI of 3.35 µM. For `N#CC(C#N)=Cc1cccc(Oc2ccccc2)c1`, the TGI was 34.1 µM. `Cc1ncc([N+](=O)[O-])n1CCNC(=O)CCCCn1ccnc1[N+](=O)[O-]` gave a TGI greater than 100 µM. For `COc1ccc(/C=C/C(=O)c2sc(-n3nc(-c4ccccc4)cc3-c3ccccc3)nc2C)cc1OC`, the TGI was greater than 100 µM. With `NC(CCSCC(F)F)C(=O)O` (stereo not given) the TGI was greater than 100 µM. Work on `COC(=O)NC/C=C\c1nc(CC/C=C\C(=O)OC2CC3CC(=O)O[C@@H](/C=C/CC(C)C)C[C@@H]4CCC(C)C(C[C@@H](OC)CC(C2)O3)O4)co1` (stereo not given in full) yielded a GI50 of less than 0.01 µM and a TGI greater than 100 µM. `CC1(C)OC(=O)C=C([O-])O1.CC1(C)OC(=O)C=C([O-])O1.O=c1c(O)c(-c2ccc([O-])cc2[O-])oc2cc(O)cc(O)c12.[Ti+4]` showed a TGI greater than 100 µM. `Nc1ccc(SC23CC4CC(CC(C4)C2)C3)cc1` gave a TGI greater than 100 µM. Molecule `CCOC(=O)[C@@H](C)C[C@H](Cc1ccccc1)NC(=O)c1csc([C@@H](C[C@H](C(C)C)N(C)C(=O)[C@@H](NC(=O)[C@H]2CCCCN2C)C(C)(C)C)OC(C)=O)n1` has a GI50 of less than 0.00167 µM and a TGI greater than 16.7 µM.

What follows are molecules tested on HCT-116 colon (assay: growth of human tumour cells (NCI), 48 h).
Molecule `Cc1c(C(=O)NN)nnn1-c1ccnc2c(C(F)(F)F)cccc12` has a GI50 greater than 100 µM and a TGI greater than 100 µM. `O=C(N/N=C/c1ccc(Cl)cc1Cl)c1ccccc1Nc1cccc(C(F)(F)F)c1` gave a GI50 of 5.62 µM and a TGI of 29.9 µM. With `N#Cc1c(N)c(C(=O)O)nn(-c2cccc(C(F)(F)F)c2)c1=O` the TGI was greater than 100 µM. For `CCOC(=O)Cc1nc(/C(C#N)=C/c2ccco2)[nH]c(=O)c1C#N`, the TGI was greater than 100 µM.
